Structures can show the parent of a compound that is named as a salt.
Assays:
M1 muscarinic receptor = molecular target: T1, M1 muscarinic receptor (Homo sapiens, UniProt P11229); assay: Functional mobilization of intracellular calcium (FLIPR), M1-CHO cells; assay type: cell-based; conditions: for Emax: 100% efficacy is the maximum response obtained using Carbachol as a control; for M1 Activity: M1-CHO cells, FLIPR calcium mobilization
T1 construct: expressed in transfected cells; host or cells: CHO (M1-CHO)
T1 sequence (P11229 1-460): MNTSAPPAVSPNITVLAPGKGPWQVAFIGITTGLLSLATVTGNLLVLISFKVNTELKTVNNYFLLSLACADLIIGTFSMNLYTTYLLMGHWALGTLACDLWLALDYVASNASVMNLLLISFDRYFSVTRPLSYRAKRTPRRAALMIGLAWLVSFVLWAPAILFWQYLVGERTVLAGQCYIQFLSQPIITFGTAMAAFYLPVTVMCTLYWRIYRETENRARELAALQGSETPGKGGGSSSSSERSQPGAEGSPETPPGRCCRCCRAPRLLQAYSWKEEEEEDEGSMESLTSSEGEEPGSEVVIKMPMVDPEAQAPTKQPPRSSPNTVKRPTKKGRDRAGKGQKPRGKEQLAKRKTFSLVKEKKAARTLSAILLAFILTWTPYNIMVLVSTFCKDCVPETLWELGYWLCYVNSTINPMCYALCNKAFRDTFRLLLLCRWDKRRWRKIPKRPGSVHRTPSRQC
Summary of the method: (§1)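 CHO cells expressing M1 or M4, loaded with Fluo-3 AM or Calcium 3 dye with 1 mM probenecid, 0.5% DMSO final. Agonist mode: compound added directly; antagonist mode: 15 min pre-incubation (or co-application) before carbachol at EC80. Fluorescence recorded 60 s on FLIPR.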

M4 muscarinic receptor = molecular target: T2, M4 muscarinic receptor (Homo sapiens, UniProt P08173); assay: Functional mobilization of intracellular calcium (FLIPR), M4-CHO cells; assay type: cell-based; conditions: for Emax: 100% efficacy is the maximum response obtained using Carbachol as a control; for M4 Activity: M4-CHO cells, FLIPR calcium mobilization
T2 construct: expressed in transfected cells; host or cells: CHO (M4-CHO)
T2 sequence (P08173 1-479): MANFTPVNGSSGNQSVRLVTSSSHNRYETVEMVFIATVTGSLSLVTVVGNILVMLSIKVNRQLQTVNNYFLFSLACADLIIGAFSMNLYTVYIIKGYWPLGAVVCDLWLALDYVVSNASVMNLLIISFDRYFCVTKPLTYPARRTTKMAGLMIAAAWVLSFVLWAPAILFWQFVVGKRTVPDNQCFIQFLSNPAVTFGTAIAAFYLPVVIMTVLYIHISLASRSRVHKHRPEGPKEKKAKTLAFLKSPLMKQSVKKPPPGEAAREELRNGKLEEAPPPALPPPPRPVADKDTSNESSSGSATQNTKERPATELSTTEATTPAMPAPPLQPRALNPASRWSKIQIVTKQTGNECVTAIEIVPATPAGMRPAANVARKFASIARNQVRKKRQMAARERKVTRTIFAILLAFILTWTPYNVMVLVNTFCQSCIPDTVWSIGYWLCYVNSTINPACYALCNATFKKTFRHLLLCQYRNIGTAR
Summary of the method: as §1

Row | SMILES | Emax (M1 muscarinic receptor) [%] | M1 Activity (M1 muscarinic receptor) | Emax (M4 muscarinic receptor) [%] | M4 Activity (M4 muscarinic receptor)
1 | CCOC(=O)N1CCC(N2CCC3(CC2)CN(C(=O)CC(C)C)Cc2ccccc23)CC1 [compound 229] | 25 to 100 | +++ (activity was measured to be less than 1.0 μM) | 25 to 100 | +++ (activity was measured to be less than 1.0 μM)
2 | CCOC(=O)N1CCC(N2CCC3(CC2)CN(C(=O)NC2CCCCC2)Cc2ccccc23)CC1 [compound 163] | 25 to 100 | +++ (activity was measured to be less than 1.0 μM) | 25 to 100 | +++ (activity was measured to be less than 1.0 μM)
3 | CCOC(=O)N1CC[C@H](CN2CCC3(CC2)CN(C(C)=O)Cc2ccccc23)C1 [compound 320] | 25 to 100 | +++ (activity was measured to be less than 1.0 μM) | 25 to 100 | +++ (activity was measured to be less than 1.0 μM)
4 | CC(=O)N1Cc2ccccc2C2(CCN(C3CC4CCC(C3)N4C(=O)O[C@@H]3CCOC3)CC2)C1 (some centres unmarked) [compound 13] | 25 to 100 | +++ (activity was measured to be less than 1.0 μM) | 25 to 100 | +++ (activity was measured to be less than 1.0 μM)
5 | COCCOC(=O)N1Cc2ccccc2C2(CCN(C3CC4CCC(C3)N4C(=O)OC(C)C)CC2)C1 (centres unmarked) [compound 157] | 25 to 100 | +++ (activity was measured to be less than 1.0 μM) | 25 to 100 | +++ (activity was measured to be less than 1.0 μM)
6 | CCOC(=O)N1C2CCC1CC(N1CCC3(CC1)CN(S(=O)(=O)c1cccs1)Cc1ccccc13)C2 (centres unmarked) [compound 316] | 25 to 100 | +++ (activity was measured to be less than 1.0 μM) | 25 to 100 | +++ (activity was measured to be less than 1.0 μM)
7 | CCOC(=O)N1C2CCC1CC(N1CCC3(CC1)CN(C(=O)c1cnoc1C)Cc1ccccc13)C2 (centres unmarked) [compound 213] | 25 to 100 | +++ (activity was measured to be less than 1.0 μM) | 25 to 100 | +++ (activity was measured to be less than 1.0 μM)
8 | CC(C)OC(=O)N1C2CCC1CC(N1CCC3(CC1)CN(S(C)(=O)=O)Cc1ccccc13)C2 (centres unmarked) [compound 154] | 25 to 100 | +++ (activity was measured to be less than 1.0 μM) | 25 to 100 | +++ (activity was measured to be less than 1.0 μM)
9 | CCCOC(=O)N1Cc2ccccc2C2(CCN(C3CC4CCC(C3)N4C(=O)OCC)CC2)C1 (centres unmarked) [compound 99] | 25 to 100 | +++ (activity was measured to be less than 1.0 μM) | 25 to 100 | +++ (activity was measured to be less than 1.0 μM)
10 | CC(=O)CN1CCC2(CC1)CN(C(C)=O)Cc1ccccc12 [compound 78] | 25 to 100 | + (activity was measured to be greater than 5.0 μM) | 25 to 100 | + (activity was measured to be greater than 5.0 μM)
11 | CCOC(=O)N1C2CCC1CC(N1CCC3(CC1)CN(C(=O)c1cc(C)oc1C)Cc1ccccc13)C2 (centres unmarked) [compound 149] | < 25 | + (activity was measured to be greater than 5.0 μM) | 25 to 100 | +++ (activity was measured to be less than 1.0 μM)
12 | CC(=O)N1Cc2ccccc2C2(CCN(CC3CCCCO3)CC2)C1 (centres unmarked) [compound 58] | < 25 | + (activity was measured to be greater than 5.0 μM) | < 25 | + (activity was measured to be greater than 5.0 μM)
13 | CCOC(=O)N1CCC(N2CCC3(CC2)CN(C(=O)Nc2c(C)noc2C)Cc2ccccc23)CC1 [compound 84] | 25 to 100 | +++ (activity was measured to be less than 1.0 μM) | < 25 | +++ (activity was measured to be less than 1.0 μM)
14 | CCCS(=O)(=O)N1Cc2ccccc2C2(CCN(C3CC4CCC(C3)N4C(=O)OC3CCC3)CC2)C1 (centres unmarked) [compound 119] | 25 to 100 | +++ (activity was measured to be less than 1.0 μM) | 25 to 100 | +++ (activity was measured to be less than 1.0 μM)
15 | CCOC(=O)N1C2CCC1CC(N1CCC3(CC1)CN(C(=O)Nc1c(C)noc1C)Cc1ccccc13)C2.Cl (centres unmarked) [compound 233, Ethyl 3-(2-(3,5-dimethylisoxazol-4-ylcarbamoyl)-2,3-dihydro-1H -spiro[isoquinoline-4,4′-piperidine]-1′-yl)-8-azabicyclo[3.2.1]octane-8-carboxylate hydrochloride] | 25 to 100 | +++ (activity was measured to be less than 1.0 μM) | 25 to 100 | +++ (activity was measured to be less than 1.0 μM)
16 | CC(=O)N1Cc2ccccc2C2(CCN(CC3CCN(C(=O)O[C@H]4CCOC4)CC3)CC2)C1 [compound 243] | < 25 | + (activity was measured to be greater than 5.0 μM) | < 25 | + (activity was measured to be greater than 5.0 μM)
17 | CCOC(=O)N1C2CCC1CC(N1CCC3(CC1)CN(S(=O)(=O)c1ccc(F)cc1)Cc1ccccc13)C2 (centres unmarked) [compound 205, Ethyl 3-(2-(4-fluorophenylsulfonyl)-2,3-dihydro-1H-spiro-[isoquinoline-4,4′-piperidine]-1′-yl)-8-azabicyclo[3.2.1]-octane-8-carboxylate hydrochloride] | 25 to 100 | +++ (activity was measured to be less than 1.0 μM) | 25 to 100 | +++ (activity was measured to be less than 1.0 μM)
18 | COC(=O)c1ccc(CN2CCC3(CC2)CN(C(C)=O)Cc2ccccc23)cc1 [compound 276] | 25 to 100 | ++ (activity was measured to be from 1.0 μM to 5.0 μM) | 25 to 100 | ++ (activity was measured to be from 1.0 μM to 5.0 μM)
19 | CCCOc1ccc(CN2CCC3(CC2)CN(C(C)=O)Cc2ccccc23)cc1 [compound 100] | < 25 | + (activity was measured to be greater than 5.0 μM) | < 25 | + (activity was measured to be greater than 5.0 μM)
20 | CCCOC(=O)N1C2CCC1CC(N1CCC3(CC1)CN(C(=O)OC1CCC1)Cc1ccccc13)C2 (centres unmarked) [compound 189] | 25 to 100 | +++ (activity was measured to be less than 1.0 μM) | 25 to 100 | +++ (activity was measured to be less than 1.0 μM)
21 | COc1cccc(CN2CCC3(CC2)CN(C(C)=O)Cc2ccccc23)c1 [compound 121] | < 25 | + (activity was measured to be greater than 5.0 μM) | < 25 | + (activity was measured to be greater than 5.0 μM)
22 | CCCCC(=O)N1Cc2ccccc2C2(CCN(C3CCN(C(=O)OCC)CC3)CC2)C1 [compound 122] | 25 to 100 | +++ (activity was measured to be less than 1.0 μM) | 25 to 100 | +++ (activity was measured to be less than 1.0 μM)
23 | CCOC(=O)N1CCC(N2CCC3(CC2)CN(S(=O)(=O)N(C)C)Cc2ccccc23)CC1 [compound 176] | 25 to 100 | +++ (activity was measured to be less than 1.0 μM) | 25 to 100 | +++ (activity was measured to be less than 1.0 μM)
24 | CCOC(=O)N1C2CCC1CC(N1CCC3(CC1)CN(C(=O)c1ccno1)Cc1ccccc13)C2 (centres unmarked) [compound 318] | 25 to 100 | +++ (activity was measured to be less than 1.0 μM) | 25 to 100 | +++ (activity was measured to be less than 1.0 μM)
25 | CCOC(=O)N1CCC(N2CCC3(CC2)CN(C(=O)OCCOC)Cc2ccccc23)CC1 [compound 23] | 25 to 100 | +++ (activity was measured to be less than 1.0 μM) | 25 to 100 | +++ (activity was measured to be less than 1.0 μM)
26 | CCOC(=O)N1CCC(N2CCC3(CC2)c2ccccc2C(=O)N3Cc2ccccc2)CC1 [compound 20, ethyl 4-(2-benzyl-3-oxospiro[isoindoline-1,4′-piperidine]-1′-yl)piperidine-1-carboxylate] | 25 to 100 | ++ (activity was measured to be from 1.0 μM to 5.0 μM) | < 25 | + (activity was measured to be greater than 5.0 μM)
